# Patent US7098219B2, “Inhibitors of cellular efflux pumps of microbes” (Wockhart Limited, priority 2000, dated 2006)
# Test system: Staphylococcus aureus 1199 B NorA+
# Assay type: cell-based
# Conditions: combination with ciprofloxacin, broth microdilution checkerboard, 35° C. 20 hours; FIC index ≦0.5 synergistic, 0.5–2.0 additive, >2.0 antagonistic
# Excerpt: Testing method for inhibition of the efflux pump of Staphylococcus aureus 1199B NorA^+
# […]. Victor Lorian, Md., Fourth edition 1996, pp 333–338).
# In short, the assay involves broth microdilution method performed as recommended by the National Committee for Clinical Laboratory Standards (NCCLS) 1997 (Methods for Dilution of Antimicrobial Susceptibility Tests for Bacteria that Grow Aerobically, Fourth edition; Approved Standard, NCCLS document M7-A4, vol. 17, No. 2). The test organism used for the assay is Staphylococcus aureus 1199 B NorA^+.
# […]. Stock solutions of the efflux pump inhibitors tested are prepared in dimethyl sulfoxide (DMSO) at a final concentration of 5 mg/ml. Stock solutions are further diluted in Mueller Hinton Broth as per the need of the assay. Ciprofloxacin is dissolved in water.
# The checkerboard assay is performed in microtiter plates. […] The efflux pump inhibitor is diluted in the Y-axis, each row containing an equal concentration of efflux pump inhibitor. The result of these manipulations is that each well of the microtiter plate contains a unique combination of concentrations of the two agents. Bacterial inoculum is added at 5×10^5 CFU/ml. Microtiter plates are incubated at 35° C. for 20 hours. Reading is done by visibly noting turbidity and confirmed using a microtiter plate reader (Molecular Devices). The FIC index is calculated as
# (A) is the concentration of the experimental efflux pump inhibitor in the well that is the lowest inhibitory concentration in the Y-axis. (MICA) is the MIC of Staphylococcus aureus to experimental efflux pump inhibitor alone. FICA is the fractional inhibitory concentration of an experimental efflux pump inhibitor. […] (Antimicrobial Combination In Antibiotics in Laboratory Medicine, Ed. Victor Lorian, Md., Fourth edition 1996, pp 333–338).
row,Molecule,FIC INDEX
1,"CCC(=O)OC1CCN(c2c(F)c(N)c3c(=O)c(C(=O)O)cn(C4CC4)c3c2F)CC1 [Example 30 (NorA), 5-Amino-1-cyclopropyl-6,8-difluoro-1,4-dihydro-7-(4′-propionoxypiperidin-1-yl)-4-oxo-quinoline-3-carboxylic acid]",0.314
2,"CC1COCC(C)N1c1c(F)c(N)c2c(=O)c(C(=O)O)cn(-c3ccccc3C(F)(F)F)c2c1F (stereo not shown) [Example 41 (NorA), 5-Amino-1-(2′-trifluoromethylphenyl)-6,8-difluoro-1,4-dihydro-7-(3′,5′-dimethylmorpholin-1-yl)-4-oxo-quinoline-3-carboxylic acid]",0.384
3,"Nc1c(F)c(N2CCOCC2)c(F)c2c1c(=O)c(C(=O)O)cn2-c1ccccc1C(F)(F)F [Example 40 (NorA), 5-Amino-1-(2′-trifluoromethylphenyl)-6,8-difluoro-1,4-dihydro-7-(morpholin-1-yl)-4-oxo-quinoline-3-carboxylic acid]",0.314
4,"CCOC(=O)c1cn(-c2ccc(F)cc2F)c2nc(NC3C4CN(Cc5ccccc5)CC43)c(F)cc2c1=O (stereo not shown) [Example 51 (NorA), Ethyl-1-(2′,4′-difluorophenyl)-6-fluoro-1,4-dihydro-7-{[1∝,5∝,6∝]-3-N-benzyl-3-azabicyclo[3.1.01]hex-6-yl-amino}-4-oxo-1,8-naphthyridine-3-carboxylate]",0.185
5,Nc1c(F)c(N2CCC(CNC3CCNCC3)CC2)c(F)c2c1c(=O)c(C(=O)O)cn2C1CC1 [Example 33 (NorA)],0.314
6,"CC1CC(C)CN(c2cc3c(cc2F)c(=O)c(C(=O)O)cn3C2CC2)C1 (stereo not shown) [Example 13 (NorA), 1-Cyclopropyl-6-fluoro-1,4-dihydro-7-(3′,5′-dimethylpiperidin-1-yl)-4-oxo-quinoline-3-carboxylic acid]",0.314
7,"CC1COCC(C)N1c1c(F)c(N)c2c(=O)c(C(=O)O)cn(C3CC3)c2c1F (stereo not shown) [Example 35 (NorA), 5-Amino-1-cyclopropyl-6,8-difluoro-1,4-dihydro-7-(3′,5′-dimethylmorpholin-1-yl)-4-oxo-quinoline-3-carboxylic acid]",0.314
8,CN(c1c(F)c(N)c2c(=O)c(C(=O)O)cn(C3CC3)c2c1F)C1CC(C)(C)N(C)C(C)(C)C1 [Example 34 (NorA)],0.282
9,"Nc1c(F)c(N2CCN(C3CC3)CC2)c(F)c2c1c(=O)c(C(=O)O)cn2C1CC1 [Example 36 (NorA), 5-Amino-1-cyclopropyl-6,8-difluoro-1,4-dihydro-7-(4′-cyclopropylpiperazin-1-yl)-4-oxo-quinoline-3-carboxylic acid]",0.314
10,"C[C@H](N)C(=O)N[C@@H](C)C(=O)NC1CCN(c2c(F)c(N)c3c(=O)c(C(=O)O)cn(C4CC4)c3c2F)C1 (stereo partly drawn) [Example 27 (NorA), 5-Amino-1-cyclopropyl-6,8-difluoro-1,4-dihydro-7-{3′-(L-Ala-L-Alaamino)pyrrolidin-1-yl}-4-oxo-quinoline-3-carboxylic acid]",0.128
11,O=C(O)c1cn(C2CC2)c2nc(NC3CCN(c4nc5c(cc4F)c(=O)c(C(=O)O)cn5C4CC4)C3)c(F)cc2c1=O (stereo not shown) [Bis compound 2],0.282
12,"CC1CC(O)CN1c1c(F)c(N)c2c(=O)c(C(=O)O)cn(-c3ccc(F)cc3F)c2c1F (stereo not shown) [Example 46 (NorA), 5-Amino-1-(2′,4′-difluorophenyl)-6,8-difluoro-1,4-dihydro-7-(3′-hydroxy-5′-methylpyrrolidin-1-yl)-4-oxo-quinoline-3-carboxylic acid]",0.314
13,"CC1CN(c2c(F)c(N)c3c(=O)c(C(=O)O)cn(-c4ccccc4C(F)(F)F)c3c2F)CC(C)N1 (stereo not shown) [Example 42 (NorA), 5-Amino-1-(2′-trifluoromethylphenyl)-6,8-difluoro-1,4-dihydro-7-(3′,5′-dimethylpiperizine-1-yl)-4-oxo-quinoline-3-carboxylic acid]",0.314
14,"CC1(C)CN(c2c(F)c(N)c3c(=O)c(C(=O)O)cn(-c4ccc(F)cc4F)c3c2F)CCN1 [Example 47 (NorA), 5-Amino-1-(2′,4′-difluorophenyl)-6,8-difluoro-1,4-dihydro-7-(3′,3′-dimethylpiperazin-1-yl)-4-oxo-quinoline-3-carboxylic acid]",0.375
15,"CCn1cc(C(=O)O)c(=O)c2c(N)c(F)c(N3CCC(NC(C)=O)CC3)c(F)c21 [Example 7 (NorA), 5-Amino-1-ethyl-6,8-difluoro-1,4-dihydro-7-{4′-(acetamido)piperidin-1-yl}-4-oxo-quinoline-3-carboxylic acid]",0.312
16,"Nc1c(F)c(N2CCN(c3nc4c(cc3F)c(=O)c(C(=O)O)cn4C3CC3)CC2)c(F)c2c1c(=O)c(C(=O)O)cn2C1CC1 [Bis compound 4, N-1-{7-(1-cyclopropyl-6-fluoro-1,4-dihydro-4-oxo-1,8-naphthyridine-3-carboxylic acid)}-N-4-{7-(1-cyclopropyl-6,8-difluoro-5-amino-1,4-dihydro-4-oxo-quinoline-3-carboxylic acid)}-piperazine]",0.282
17,"COc1c(N2CC(C)C(N)C(C)C2)c(F)c(N)c2c(=O)c(C(=O)O)cn(C3CC3)c12 (stereo not drawn) [Example 24 (NorA), 5-Amino-1-cyclopropyl-6-fluoro-8-methoxy-1,4-dihydro-7-(cis-4′-amino-3′,5′-dimethylpiperidin-1-yl)-4-oxo-quinoline-3-carboxylic acid]",0.314
18,"(S)-(−)-9-Fluoro-6,7-dihydro-8-(4′-hydroxypiperidin-1-yl)-5-methyl-1-oxo-1H,5H-benzo[i,j]quinolizine-2-carboxylic acid L-aryinine salt [Example 54 (NorA)]",0.314
19,"CCOC(=O)c1cn([C@@H](C)CCSc2ccccc2)c2c(F)c(N3CCC(O)CC3)c(F)cc2c1=O [Example 38 (NorA), Ethyl 6,8-Difluoro-7-(4-hydroxypiperidin-1-yl)-1-(1-phenylthio-3(S)-but-3-yl)-1,4-dihydro-4-oxo-quinoline-3-carboxylate]",0.100
20,"CCn1cc(C(=O)O)c(=O)c2c(N)c(F)c(N3CC(N)CC3C)c(F)c21 (stereo not shown) [5 (NorA), 5-Amino-1-ethyl-6,8-difluoro-1,4-dihydro-7-(3′-amino-5′-methylpyrrolidin-1-yl)-4-oxo-quinoline-3-carboxylic acid]",0.378
21,"COc1c(N2CCC(N(C)C)C(C)C2)c(F)cc2c(=O)c(C(=O)O)cn(C3CC3)c12 (stereo not shown) [19 (NorA), 1-Cyclopropyl-6-fluoro-8-methoxy-1,4-dihydro-7-{4′-(N-dimethylamino)-3′-methylpiperidin-1-yl}-4-oxo-quinoline-3-carboxylic acid]",0.200
22,"Cc1c(F)c(N2CCC(Nc3nc4c(cc3F)c(=O)c(C(=O)O)cn4-c3ccc(F)cc3F)C2)cc2c1c(=O)c(C(=O)O)cn2C1CC1 (stereo not shown) [Bis compound 5, N-1-{7-(1-cyclopropyl-6-fluoro-5-methyl-1,4-dihydro-4-oxo-quinolone-3-carboxylic acid)}-N-3-amino-{7-(1-(2,4-difluorophenyl)-6-fluoro-1,4-dihydro-4-oxo-1,8-naphthyridine-3-carboxylic acid)}-pyrrolidine]",0.320
23,"CC1CC(N)CN1c1cc2c(cc1F)c(=O)c(C(=O)O)cn2C1CC1 (stereo not shown) [Example 10 (NorA), 1-Cyclopropyl-6-fluoro-1,4-dihydro-7-(3′-amino-5′-methylpyrrolidin-1-yl)-4-oxo-quinoline-3-carboxylic acid]",0.314
24,"CC(=O)OC1CCN(c2cc3c(cc2F)c(=O)c(C(=O)O)cn3C2CC2)CC1 [Example 11 (NorA), 1-Cyclopropyl-6-fluoro-1,4-dihydro-7-(4′-acetoxypiperidin-1-yl)-4-oxo-quinoline-3-carboxylic acid]",0.282
25,"Cc1c(F)c(N2CCNC(C)(C)C2)cc2c1c(=O)c(C(=O)O)cn2C1CC1 [Example 18 (NorA), 1-Cyclopropyl-6-fluoro-1,4-dihydro-5-methyl-7-(3′,3′-dimethylpiperazin-1-yl)-4-oxo-quinoline-3-carboxylic acid]",0.314
26,"Nc1c(F)c(N2CCC(N)C2)c(F)c2c1c(=O)c(C(=O)O)cn2-c1ccc(C(F)(F)F)cc1 (stereo not shown) [Example 43 (NorA), 5-Amino-1-(4′-trifluoromethylphenyl)-6,8-difluoro-1,4-dihydro-7-(3′-aminopyrrolidin-1-yl)-4-oxo-quinoline-3-carboxylic acid]",0.564
27,"CC1CC(C)CN(c2cc3c(cc2F)c(=O)c(C(=O)O)cn3-c2ccc(F)cc2F)C1 (stereo not shown) [Example 45 (NorA), 1-(2′,4′-Difluorophenyl)-6-fluoro-1,4-dihydro-7-(3′,5′-dimethylpiperidin-1-yl)-4-oxo-quinoline-3-carboxylic acid]",0.192
28,"CCCCN(CCCC)C1CCN(c2c(F)c(N)c3c(=O)c(C(=O)O)cn(C4CC4)c3c2F)CC1 [Example 28 (NorA), 5-Amino-1-cyclopropyl-6,8-difluoro-1,4-dihydro-7-{4′-(N-di-n-butylamino)piperidin-1-yl)-4-oxo-quinoline-3-carboxylic acid]",0.314
